Patent US10004701B2, “Methods and compositions for treating infection” (UNIVERSITY OF ROCHESTER, priority 2012, dated 2018)
Counter-ions that a name gives are not always drawn. Like-named read-outs stand apart in the source and are kept apart here.

Columns and labels:
Experiment in all cases: AK assay 384-well format, Prestwick library screening
E. faecium = assay type: cell-based, Enterococcus faecium; settings: 50 μM final drug concentration; for fold induction at 50 µM: Enterococcus faecium, 3 h
[1] = test system: S. aureus strain USA300-0114; assay type: cell-based, Staphylococcus aureus; settings: 50 μM final drug concentration; for fold induction at 50 µM: Staphylococcus aureus, USA300, 3 h
K. pneumoniae = assay type: cell-based, Klebsiella pneumoniae; settings: 50 μM final drug concentration; for fold induction at 50 µM: Klebsiella pneumoniae, 3 h
[2] = test system: A. baumannii strain 98-37-09; assay type: cell-based, Acinetobacter baumannii; settings: 50 μM final drug concentration; for fold induction at 50 µM: Acinetobacter baumannii, 983709, 3 h
P. aeruginosa = assay type: cell-based, Pseudomonas aeruginosa; settings: 50 μM final drug concentration; for fold induction at 50 µM: Pseudomonas aeruginosa, 3 h
E. cloacae = assay type: cell-based, Enterobacter cloacae; settings: 50 μM final drug concentration; for fold induction at 50 µM: Enterobacter cloacae, 3 h
E. coli = assay type: cell-based, Escherichia coli; settings: 50 μM final drug concentration; for fold induction at 50 µM: Escherichia coli, 3 h
[3] = 384-well format, cutoff for positive-scoring molecules 3-fold increase, read-out: AK-based Prestwick Library Screening Results, E. faecium (increase in extracellular AK activity)
[4] = 384-well format, cutoff for positive-scoring molecules 3-fold increase, read-out: AK-based Prestwick Library Screening Results, S. aureus (increase in extracellular AK activity)
[5] = 384-well format, cutoff for positive-scoring molecules 3-fold increase, read-out: AK-based Prestwick Library Screening Results, K. pneumoniae (increase in extracellular AK activity)
[6] = 384-well format, cutoff for positive-scoring molecules 3-fold increase, read-out: AK-based Prestwick Library Screening Results, A. baumannii (increase in extracellular AK activity)
[7] = 384-well format, cutoff for positive-scoring molecules 3-fold increase, read-out: AK-based Prestwick Library Screening Results, P. aeruginosa (increase in extracellular AK activity)
[8] = 384-well format, cutoff for positive-scoring molecules 3-fold increase, read-out: AK-based Prestwick Library Screening Results, E. cloacae (increase in extracellular AK activity)
[9] = 384-well format, cutoff for positive-scoring molecules 3-fold increase, read-out: AK-based Prestwick Library Screening Results, E. coli (increase in extracellular AK activity)
[10] = planktonic E. faecium, cutoff for positive-scoring molecules 3-fold increase, read-out: AK-based Prestwick Library Screening Results, E. faecium (increase in extracellular AK activity)
[11] = planktonic S. aureus, cutoff for positive-scoring molecules 3-fold increase, read-out: AK-based Prestwick Library Screening Results, S. aureus (increase in extracellular AK activity)
[12] = planktonic K. pneumoniae, cutoff for positive-scoring molecules 3-fold increase, read-out: AK-based Prestwick Library Screening Results, K. pneumoniae (increase in extracellular AK activity)
[13] = planktonic A. baumannii, cutoff for positive-scoring molecules 3-fold increase, read-out: AK-based Prestwick Library Screening Results, A. baumannii (increase in extracellular AK activity)
[14] = planktonic P. aeruginosa, cutoff for positive-scoring molecules 3-fold increase, read-out: AK-based Prestwick Library Screening Results, P. aeruginosa (increase in extracellular AK activity)
[15] = planktonic E. cloacae, cutoff for positive-scoring molecules 3-fold increase, read-out: AK-based Prestwick Library Screening Results, E. cloacae (increase in extracellular AK activity)
[16] = planktonic E. coli, cutoff for positive-scoring molecules 3-fold increase, read-out: AK-based Prestwick Library Screening Results, E. coli (increase in extracellular AK activity)
[17] = planktonic, cutoff for positive-scoring molecules 3-fold increase

## CC(=O)CCCCn1c(=O)c2c(ncn2C)n(C)c1=O [Pentoxifylline]
E. faecium; [3]
  fold induction at 50 µM: 0.9
[1]; [4]
  fold induction at 50 µM: 0.8
K. pneumoniae; [5]
  fold induction at 50 µM: 0.7
[2]; [6]
  fold induction at 50 µM: 0.9
P. aeruginosa; [7]
  fold induction at 50 µM: 0.8
E. cloacae; [8]
  fold induction at 50 µM: 1.1
E. coli; [9]
  fold induction at 50 µM: 0.8

## CC(C)N1CCN(c2ccc(OCC3COC(Cn4cncn4)(c4ccc(Cl)cc4Cl)O3)cc2)CC1 (stereo not drawn) [Terconazole]
E. faecium; [10]
  fold induction at 50 µM: 1
[1]; [11]
  fold induction at 50 µM: 0.6
K. pneumoniae; [12]
  fold induction at 50 µM: 0.7
[2]; [13]
  fold induction at 50 µM: 0.8
P. aeruginosa; [14]
  fold induction at 50 µM: 0.8
E. cloacae; [15]
  fold induction at 50 µM: 0.9
E. coli; [16]
  fold induction at 50 µM: 0.9

## CCCCNc1ccc(C(=O)OCCN(C)C)cc1 [Tetracaine hydrochloride]
E. faecium; [10]
  fold induction at 50 µM: 0.9
[1]; [11]
  fold induction at 50 µM: 0.6
K. pneumoniae; [12]
  fold induction at 50 µM: 0.6
[2]; [13]
  fold induction at 50 µM: 0.8
P. aeruginosa; [14]
  fold induction at 50 µM: 0.8
E. cloacae; [15]
  fold induction at 50 µM: 0.9
E. coli; [16]
  fold induction at 50 µM: 0.9

## NC[C@@H]1O[C@H](O[C@H]2[C@@H](O)[C@H](O[C@@H]3[C@@H](O)[C@H](N)C[C@H](N)[C@H]3O[C@H]3O[C@H](CN)[C@@H](O)[C@H](O)[C@H]3N)O[C@@H]2CO)[C@H](N)[C@@H](O)[C@@H]1O.O=S(=O)(O)O [Neomycin sulfate]
E. faecium; planktonic E. faecium, 384-well, cutoff for positive-scoring molecules 3-fold increase
  AK-based Prestwick Library Screening Results: E. faecium (increase in extracellular AK activity): 1.0
[1]; planktonic S. aureus, 384-well, cutoff for positive-scoring molecules 3-fold increase
  AK-based Prestwick Library Screening Results: S. aureus (increase in extracellular AK activity): 1.1
K. pneumoniae; planktonic K. pneumoniae, 384-well, cutoff for positive-scoring molecules 3-fold increase
  AK-based Prestwick Library Screening Results: K. pneumoniae (increase in extracellular AK activity): 1.0
[2]; planktonic A. baumannii, 384-well, cutoff for positive-scoring molecules 3-fold increase
  AK-based Prestwick Library Screening Results: A. baumannii (increase in extracellular AK activity): 1.4
P. aeruginosa; planktonic P. aeruginosa, 384-well, cutoff for positive-scoring molecules 3-fold increase
  AK-based Prestwick Library Screening Results: P. aeruginosa (increase in extracellular AK activity): 0.9
E. cloacae; planktonic E. cloacae, 384-well, cutoff for positive-scoring molecules 3-fold increase
  AK-based Prestwick Library Screening Results: E. cloacae (increase in extracellular AK activity): 1.3
E. coli; planktonic E. coli, 384-well, cutoff for positive-scoring molecules 3-fold increase
  AK-based Prestwick Library Screening Results: E. coli (increase in extracellular AK activity): 1.2

## CCN(CC)CCc1nc(-c2ccccc2)no1.O=C(O)CC(O)(CC(=O)O)C(=O)O [Oxalamine citrate salt]
E. faecium; [17]
  AK-based Prestwick Library Screening Results, E. faecium (fold increase in extracellular AK activity): 0.8
[1]; [17]
  AK-based Prestwick Library Screening Results, S. aureus (fold increase in extracellular AK activity): 0.8
K. pneumoniae; [17]
  AK-based Prestwick Library Screening Results, K. pneumoniae (fold increase in extracellular AK activity): 0.7
[2]; [17]
  AK-based Prestwick Library Screening Results, A. baumannii (fold increase in extracellular AK activity): 0.8
P. aeruginosa; [17]
  AK-based Prestwick Library Screening Results, P. aeruginosa (fold increase in extracellular AK activity): 0.9
E. cloacae; [17]
  AK-based Prestwick Library Screening Results, E. cloacae (fold increase in extracellular AK activity): 1.2
E. coli; [17]
  AK-based Prestwick Library Screening Results, E. coli (fold increase in extracellular AK activity): 0.9

## CCCCC1(COC(=O)CCC(=O)O)C(=O)N(c2ccccc2)N(c2ccccc2)C1=O [Suxibuzone]
E. faecium; planktonic, cutoff for positive-scoring molecules 3-fold increase, read-out: AK-based Prestwick Library Screening Results, E. faecium (fold increase in extracellular AK activity)
  fold induction at 50 µM: 0.9
[1]; planktonic, cutoff for positive-scoring molecules 3-fold increase, read-out: AK-based Prestwick Library Screening Results, S. aureus (fold increase in extracellular AK activity)
  fold induction at 50 µM: 0.6
K. pneumoniae; planktonic, cutoff for positive-scoring molecules 3-fold increase, read-out: AK-based Prestwick Library Screening Results, K. pneumoniae (fold increase in extracellular AK activity)
  fold induction at 50 µM: 0.6
[2]; planktonic, cutoff for positive-scoring molecules 3-fold increase, read-out: AK-based Prestwick Library Screening Results, A. baumannii (fold increase in extracellular AK activity)
  fold induction at 50 µM: 0.8
P. aeruginosa; planktonic, cutoff for positive-scoring molecules 3-fold increase, read-out: AK-based Prestwick Library Screening Results, P. aeruginosa (fold increase in extracellular AK activity)
  fold induction at 50 µM: 0.6
E. cloacae; planktonic, cutoff for positive-scoring molecules 3-fold increase, read-out: AK-based Prestwick Library Screening Results, E. cloacae (fold increase in extracellular AK activity)
  fold induction at 50 µM: 0.8
E. coli; planktonic, cutoff for positive-scoring molecules 3-fold increase, read-out: AK-based Prestwick Library Screening Results, E. coli (fold increase in extracellular AK activity)
  fold induction at 50 µM: 0.6

## CC[C@]12CCCN3CCc4c(n(c5ccccc45)[C@@](O)(C(=O)OC)C1)[C@@H]32 [Vincamine]
E. faecium; [3]
  fold induction at 50 µM: 0.9
[1]; [4]
  fold induction at 50 µM: 0.7
K. pneumoniae; [5]
  fold induction at 50 µM: 0.7
[2]; [6]
  fold induction at 50 µM: 0.9
P. aeruginosa; [7]
  fold induction at 50 µM: 1
E. cloacae; [8]
  fold induction at 50 µM: 1.2
E. coli; [9]
  fold induction at 50 µM: 0.9

## CCN(CC)CCNC(=O)c1cc(S(C)(=O)=O)ccc1OC [Tiapride hydrochloride]
E. faecium; planktonic E. faecium, 384-well, cutoff for positive-scoring molecules 3-fold increase, read-out: AK-based Prestwick Library Screening Results: E. faecium (increase in extracellular AK activity)
  fold induction at 50 µM: 1.1
[1]; planktonic S. aureus, 384-well, cutoff for positive-scoring molecules 3-fold increase, read-out: AK-based Prestwick Library Screening Results: S. aureus (increase in extracellular AK activity)
  fold induction at 50 µM: 1
K. pneumoniae; planktonic K. pneumoniae, 384-well, cutoff for positive-scoring molecules 3-fold increase, read-out: AK-based Prestwick Library Screening Results: K. pneumoniae (increase in extracellular AK activity)
  fold induction at 50 µM: 0.9
[2]; planktonic A. baumannii, 384-well, cutoff for positive-scoring molecules 3-fold increase, read-out: AK-based Prestwick Library Screening Results: A. baumannii (increase in extracellular AK activity)
  fold induction at 50 µM: 1.1
P. aeruginosa; planktonic P. aeruginosa, 384-well, cutoff for positive-scoring molecules 3-fold increase, read-out: AK-based Prestwick Library Screening Results: P. aeruginosa (increase in extracellular AK activity)
  fold induction at 50 µM: 1.2
E. cloacae; planktonic E. cloacae, 384-well, cutoff for positive-scoring molecules 3-fold increase, read-out: AK-based Prestwick Library Screening Results: E. cloacae (increase in extracellular AK activity)
  fold induction at 50 µM: 1.5
E. coli; planktonic E. coli, 384-well, cutoff for positive-scoring molecules 3-fold increase, read-out: AK-based Prestwick Library Screening Results: E. coli (increase in extracellular AK activity)
  fold induction at 50 µM: 1.4

## CCC(=O)O[C@H]1CC[C@H]2[C@@H]3CCC4=CC(=O)CC[C@]4(C)[C@H]3CC[C@]12C [Testosterone propionate]
E. faecium; planktonic E. faecium, 384-well, […], read-out: AK-based Prestwick Library Screening Results: E. faecium (increase in extracellular AK activity)
  fold induction at 50 µM: 0.9
[1]; planktonic S. aureus, 384-well, […], read-out: AK-based Prestwick Library Screening Results: S. aureus (increase in extracellular AK activity)
  fold induction at 50 µM: 0.3
K. pneumoniae; planktonic K. pneumoniae, 384-well, […], read-out: AK-based Prestwick Library Screening Results: K. pneumoniae (increase in extracellular AK activity)
  fold induction at 50 µM: 0.4
[2]; planktonic A. baumannii, 384-well, […], read-out: AK-based Prestwick Library Screening Results: A. baumannii (increase in extracellular AK activity)
  fold induction at 50 µM: 0.5
P. aeruginosa; planktonic P. aeruginosa, 384-well, […], read-out: AK-based Prestwick Library Screening Results: P. aeruginosa (increase in extracellular AK activity)
  fold induction at 50 µM: 0.4
E. cloacae; planktonic E. cloacae, 384-well, […], read-out: AK-based Prestwick Library Screening Results: E. cloacae (increase in extracellular AK activity)
  fold induction at 50 µM: 0.3
E. coli; planktonic E. coli, 384-well, […], read-out: AK-based Prestwick Library Screening Results: E. coli (increase in extracellular AK activity)
  fold induction at 50 µM: 0.5
